# Like-named read-outs stand apart in the source and are kept apart here.
# Experiments:
# β-receptors of the heart = target: T1, β-receptors of the heart (Felis catus, UniProt Q9TST6); test: Intrinsic activity and β-blockade of heart rate response to isoprenaline in the reserpinized cat; type: in vivo; details: for ED50: read-out: β-blockade Heart rate ED50; for Emax: read-out: Intrinsic activity % of isoprenaline heart rate response
# T1 construct: Intravenously injected isoprenaline increased the heart rate and reduced the perfusion pressure; from tissue; host or cells: heart of the anaesthetized, reserpinized, vagotomized cat (in vivo)
# T1 sequence (Q9TST6 whole entry, the tested form may be a part): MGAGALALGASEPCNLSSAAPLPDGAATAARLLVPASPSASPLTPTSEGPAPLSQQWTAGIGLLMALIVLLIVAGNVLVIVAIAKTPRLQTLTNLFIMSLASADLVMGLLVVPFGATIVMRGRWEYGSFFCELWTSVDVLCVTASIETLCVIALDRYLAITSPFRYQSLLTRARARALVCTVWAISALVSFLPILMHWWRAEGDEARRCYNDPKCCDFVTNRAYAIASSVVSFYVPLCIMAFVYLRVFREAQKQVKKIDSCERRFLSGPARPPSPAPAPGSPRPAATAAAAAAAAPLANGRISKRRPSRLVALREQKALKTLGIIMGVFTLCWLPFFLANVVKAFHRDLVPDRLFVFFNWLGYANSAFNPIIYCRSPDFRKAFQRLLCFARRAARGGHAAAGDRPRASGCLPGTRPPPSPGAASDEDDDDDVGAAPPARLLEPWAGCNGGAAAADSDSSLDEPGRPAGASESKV
# Experimental: Alprenolol was used as a reference substance.
# (§1) Cats weighing between […] were anaesthetized with 30 mg/kg pentobarbital sodium i.p. The cats had been pretreated with reserpine, 5 mg/kg i.m. about 18 hours before the experiment. Bilateral vagotomy was performed before the start of the experiment.
# The heart rate was recorded on an Offner cardiotachometer triggered by the EKG-complex. Mean intraarterial blood pressure was recorded from a carotid artery. The peripheral resistance was measured in one of the legs of the cat in the following way: The femoral artery was opened in the inguinal region and the leg was perfused by blood delivered through a sigma motor pump at constant rate. The flow resistance (the pressure) as recorded via a strain gauge transducer connected to the catheter distally to the pump. The paw was excluded from the circulation by a tight ligature around the ankle. […] An isoprenaline dose giving 70-80% of the maximal chronotropic response was determined. […] Ten minutes before each isoprenaline injection, the tested substances were administered intravenously for two minutes, starting with a dose of 0.01 mg/kg and increasing each subsequent dose fourfold. The intrinsic effects of the test substances were determined. The dose producing 50% blockade of the isoprenaline responses were evaluated from the plotted log dose-per cent blockade diagrams.
# [1] = target: T2, peripheral vascular β-receptors (Felis catus, UniProt Q9TST5); test: Peripheral vascular β-blockade (peripheral vascular resistance, vasodilator response to isoprenaline) in the reserpinized cat; type: in vivo; details: read-out: β-blockade Peripheral vascular resistance ED50
# T2 construct: from tissue; host or cells: vascular bed of the blood-perfused leg (paw excluded) of the anaesthetized, reserpinized cat (in vivo)
# T2 sequence (Q9TST5 whole entry, the tested form may be a part): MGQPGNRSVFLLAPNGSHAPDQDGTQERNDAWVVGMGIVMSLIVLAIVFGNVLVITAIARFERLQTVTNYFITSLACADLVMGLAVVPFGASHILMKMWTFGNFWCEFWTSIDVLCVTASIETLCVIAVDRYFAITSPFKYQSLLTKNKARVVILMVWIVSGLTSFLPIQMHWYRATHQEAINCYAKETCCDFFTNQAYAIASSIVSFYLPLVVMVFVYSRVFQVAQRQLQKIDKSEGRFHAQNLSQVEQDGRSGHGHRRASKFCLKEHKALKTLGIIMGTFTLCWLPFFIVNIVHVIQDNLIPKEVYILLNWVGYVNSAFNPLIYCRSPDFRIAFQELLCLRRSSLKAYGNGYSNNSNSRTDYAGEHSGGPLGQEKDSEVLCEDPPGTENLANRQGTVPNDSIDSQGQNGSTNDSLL
# Experimental: The compounds prepared according to examples 1-18 were evaluated for intrinsic activity and blocking effect on heart rate and for peripheral vasodilator response to isoprenaline in the cat. Alprenolol was used as a reference substance.
# as §1
# The heart rate was recorded on an Offner cardiotachometer triggered by the EKG-complex. Mean intraarterial blood pressure was recorded from a carotid artery. The peripheral resistance was measured in one of the legs of the cat in the following way: The femoral artery was opened in the inguinal region and the leg was perfused by blood delivered through a sigma motor pump at constant rate. The flow resistance (the pressure) as recorded via a strain gauge transducer connected to the catheter distally to the pump. The paw was excluded from the circulation by a tight ligature around the ankle. Intravenously injected isoprenaline increased the heart rate and reduced the perfusion pressure. An isoprenaline dose giving 70-80% of the maximal chronotropic response was determined. This dose (usually 0.1 μg/kg) was then repeated with 20 minute intervals. Ten minutes before each isoprenaline injection, the tested substances were administered intravenously for two minutes, starting with a dose of 0.01 mg/kg and increasing each subsequent dose fourfold. The intrinsic effects of the test substances were determined. The dose producing 50% blockade of the isoprenaline responses were evaluated from the plotted log dose-per cent blockade diagrams.
# [2] = reserpinized cat, intravenous, 50% blockade of isoprenaline response (usually 0.1 μg/kg)
"ED50 [1, 2] [mg/kg]",Compound,ED50 (β-receptors of the heart; [2]) [mg/kg],"Emax (β-receptors of the heart; reserpinized cat, intravenous) [%]","ED50 (β-receptors of the heart; cat, iv) [mg/kg]",Emax (β-receptors of the heart; iv) [%],"ED50 ([1]; cat, iv) [mg/kg]"
1.8,"CNC(=O)OCCc1ccc(OCC(O)CNC(C)C)c(Cl)c1 (stereo not shown) [CH3 NHCOOC2 H4, Cl, 1-Isopropylamino-3-[2-chloro-4-(2-methylcarbamoyloxyethyl)-phenoxy]-propanol-2]",0.3,0,–,–,–
2.4,"CNC(=O)OCCc1ccc(OCC(O)CNC(C)C)cc1 (stereo not shown) [CH3 NHCOOC2 H4, H, 1-Isopropylamino-3-[4-(2-methylcarbamoyloxyethyl)-phenoxy]-propanol-2]",0.4,0,–,–,–
2.6,"CC(C)NCC(O)COc1ccc(CCNC(N)=O)cc1Cl (stereo not shown) [H2 NCONHC2 H4, Cl, 1-Isopropylamino-3-[2-chloro-4-(2-carbamoylaminoethyl)phenoxy]-propanol-2]",0.4,0,–,–,–
14,"CC(C)NCC(O)COc1ccc(CCNC(N)=O)cc1 (stereo not shown) [H2 NCONHC2 H4, H]",0.4,0,–,–,–

# The remaining lines, values behind:
Compound,"ED50 [1, 2] [mg/kg]",ED50 (β-receptors of the heart; [2]) [mg/kg],"Emax (β-receptors of the heart; reserpinized cat, intravenous) [%]","ED50 (β-receptors of the heart; cat, iv) [mg/kg]",Emax (β-receptors of the heart; iv) [%],"ED50 ([1]; cat, iv) [mg/kg]"
"CC(C)NCC(O)COc1ccc(OCCOC(=O)N(C)C)cc1Cl (stereo not shown) [(CH3)2 NCOOC2 H4 O, Cl, 1-Isopropylamino-3-[2-chloro-4-(2-dimethylcarbamoyloxyethoxy)-phenoxy]-propanol-2]",1.7,0.1,5,–,–,–
"CNC(=O)OCCOc1ccc(OCC(O)CNC(C)C)cc1 (stereo not shown) [CH3 NHCOOC2 H4 O, H, 1-isopropylamino-3-[4-(2-methylcarbamoyloxyethoxy)-phenoxy]-propanol-2]",> 8.5,0.5,25,–,–,–
"CC(C)NCC(O)COc1ccc(OCCOC(N)=O)cc1 (stereo not shown) [H2 NCOOC2 H5 O, H, 1-Isopropylamino-3-[4-(2-carbamoyloxyethoxy)-phenoxy]-propanol-2]",–,–,–,0.4,40,8
"C=CCc1ccccc1OCC(O)CNC(C)C (stereo not shown) [alprenolol, Alprenolol, reference compound]",–,–,20,–,–,–
